Experimental data as given in patent publication US9598532B2, “Terpolymers as pressure-sensitive adhesives” (Surmodics, Inc., priority 2010, dated 2017).

Test: In vivo elution of minocycline from the implant device
Conditions: within 72 hours
Description: The final implant device prepared above was pressed onto a silicone-release liner under normal ambient conditions (30-40% relative humidity). The implant device was vacuum sealed in foil pouches (with argon backflow) in a dry room (<20% relative humidity). The implant device was sterilized using 22-28 kGy of gamma radiation at a slow dose rate of 4-6 kGy/hour. Gamma irradiation was performed on dry ice, but can also be performed at ambient temperature. The bioactive agent content of the implant device was within +/−10% of the target dose. Greater than 80% minocycline eluted in vivo within 72 hours.

## CN(C)c1ccc(O)c2c1C[C@H]1C[C@H]3[C@H](N(C)C)C(O)=C(C(N)=O)C(=O)[C@@]3(O)C(O)=C1C2=O [Minocycline]
  minocycline eluted in vivo: Greater than 80%
